row,melting point [°C],Compound
1,92.5 to 94,CCN(CC)CCOc1ccc(Oc2ccc(S(C)(=O)=O)cc2)cc1
2,67 to 68,CCCC=Cc1c(C(C)C)nc(C(C)C)c(C(=O)OCC)c1-c1ccc(CC)cc1
3,92 to 93,CCCCc1nc(C(C)(C)O)c(C(=O)OCC)n1Cc1ccc(-c2ccccc2C(=O)OC(C)(C)C)cc1
4,94 to 95,CCc1noc(NS(=O)(=O)c2ccccc2)c1C
5,155 to 156,Cc1c(C)c2c(c(C)c1NC(=O)CC(C)(C)C)C(c1ccc(C(C)C)c(OCCO)c1)CO2 (stereo not given)
6,133 to 135,CS(=O)(=O)Nc1ccc2[nH]ccc2c1
7,206 to 208,O=C1c2ccccc2-c2c1c1ccccc1c(=O)n2C1CC1
8,104 to 106,CCCOc1c(-c2cc(C=CC(=O)O)ccc2O)cc(C(C)(C)C)cc1C(C)(C)C
9,218 to 220,CC(C)(C)c1ccc([C@@H]2C[C@H]3C=C(c4c[nH]c(-c5ccc(F)c(F)c5)c4-c4ccncc4)CCN3C2)cc1
10,176 to 178,NC(=O)[C@H]1CN(c2ccc(I)c(F)c2)C(=O)O1
11,170 to 171,O=C(CCc1cnoc1-c1ccccc1)Nc1ccc2ncccc2c1
12,234 to 236,O=C(NCc1ccc(Cl)cc1)c1cnc2sc(Br)cc2c1O
13,215 to 217,CCOc1cc2c(Nc3cc(OC)c(Cl)cc3Cl)c(C#N)cnc2cc1OCCOC
14,131 to 132,COc1cc(CCCC2SC(=O)NC2=O)ccc1OCc1coc(-c2ccccc2)n1 (stereo not given)
15,194,CN(CCCN1C(=O)c2cccc3cc4ccccc4c(c23)C1=O)CCCN1C(=O)c2cccc3cc4ccccc4c(c23)C1=O
16,374 to 376,CC(C)Cn1c(=O)[nH]c2c(C(N)=O)nc(-c3cccc(O)c3)nc21
17,85.6,CC(=O)N1c2ccc(-c3ccc(C=O)cc3)cc2C(NC=O)CC1C (stereo not given)
18,86 to 87,CCOc1nc2c(cnn2CC)nc1C(=O)Cl
19,104,CCC(C)(C)NC(=O)c1ccc(S(=O)(=O)Cl)c(OC)c1

row,melting point [°C],Compound
1,89 to 90,CCCCCCOc1ccccc1C(=NCCC(C)(C)C)NC#N
2,114 to 115,CC(C)c1cc(CCCOc2ncccc2CC(=O)O)n(Cc2ccc(C(F)(F)F)cc2Cl)n1
3,43 to 44,COC(=O)Cc1ccc(C(C)=O)s1
4,204,Cc1nc(NC(=N)N)sc1C(=O)Nc1cccc(OCC(=O)OC(C)(C)C)c1
5,139 to 141,Cn1c(CC#N)ccc1C(=O)c1ccc(Br)cc1
6,212 to 213,CN1Cc2cccnc2N(c2ccc(F)cc2)C1=O
7,40,O=[PH](O)Cc1ccc(P(c2ccccc2)c2ccccc2)cc1
8,108 to 110,CC(C)(C)NCC(O)COc1cccc(C#N)c1 (stereo not given)
9,95 to 96,CC(O)c1cc(Br)ccc1N (stereo not given)
10,145,COc1c(C)cc(C(=O)c2cc(-c3ccc(NC(C)=O)cc3)c(N3CCOCC3)s2)nc1C
11,154 to 155,CCN(CC)C(=O)Nc1ccc(-c2c[nH]c(=O)cn2)cc1
12,194 to 196,CC(C)C(=O)NC1c2cc3nonc3cc2OC(C)(C)C1O (stereo not given)
13,139 to 141,CN(C)C(=O)Nc1ccc(Cl)c(N)n1
14,69 to 72,Cc1nc(CN(C)C(=O)N[C@H](C(=O)N[C@@H](Cc2ccccc2)C[C@H](O)[C@H](Cc2ccccc2)NC(=O)OCc2cccnc2)C(C)C)cs1
15,183 to 185,OCc1c[nH]c(-c2ccc(OCc3ccccc3)cc2)n1
16,175,CN1CCC(O)(c2cnc3ccccc3c2)CC1
17,98 to 100,Cc1oc(-c2ccccc2)nc1Cc1cc2cc(Br)ccc2o1
18,210 to 211,CN1CC2CC1CN2c1ccc(NC=C2C(=O)NC(=O)c3ccc(I)cc32)cc1 (stereo not given)

row,Compound,melting point [°C]
1,Clc1ccc2c(C3=CCNCC3)c[nH]c2c1Cl,252 to 254
2,CC(=O)NC(=O)C(Cl)C(C)=O (stereo not given),54 to 58
3,C=CCN1CC(C)N(C(c2ccsc2)c2cccc(O)c2)CC1C (stereo not given),140 to 142

# Reference: a melting point compilation (Tetko et al.; mined from patent text by program, amines drawn as free bases though some values may be those of a salt)
